From US20230355597A1, “COMPOUNDS, COMPOSITIONS, AND METHODS FOR THE TREATMENT AND PREVENTION OF AVIAN PATHOGENIC E. COLI (APEC)” (OHIO STATE INNOVATION FOUNDATION, priority 2018, published 2023)
Converted amounts (≈) assume the structure as drawn. Marks after values point to notes of the source that are not given here.

How the values were obtained:
APEC O78 [1] = type: cell-based, avian pathogenic Escherichia coli (APEC); conditions: APEC O78, M63 media; cell prints MIC/MBC
APEC O1 = type: cell-based, avian pathogenic Escherichia coli (APEC); conditions: APEC O1, M63 media; MIC/MBC
APEC O2 = type: cell-based, avian pathogenic Escherichia coli (APEC); conditions: APEC O2, M63 media; MIC/MBC
APEC O8 = type: cell-based, avian pathogenic Escherichia coli (APEC); conditions: APEC O8, M63 media; MIC/MBC
APEC O15 = type: cell-based, avian pathogenic Escherichia coli (APEC); conditions: APEC O15, M63 media; MIC/MBC
APEC O18 = type: cell-based, avian pathogenic Escherichia coli (APEC); conditions: APEC O18, M63 media; MIC/MBC
APEC O35 = type: cell-based, avian pathogenic Escherichia coli (APEC); conditions: APEC O35, M63 media; MIC/MBC
APEC O115 = type: cell-based, avian pathogenic Escherichia coli (APEC); conditions: APEC O115, M63 media; MIC/MBC
APEC O109 = type: cell-based, avian pathogenic Escherichia coli (APEC); conditions: APEC O109, M63 media; MIC/MBC
APEC O78-53 = type: cell-based, avian pathogenic Escherichia coli (APEC); conditions: APEC O78-53, M63 media; MIC/MBC
APEC O1-63 = type: cell-based, avian pathogenic Escherichia coli (APEC); conditions: APEC O1-63, M63 media; MIC/MBC
APEC O2-211 = type: cell-based, avian pathogenic Escherichia coli (APEC); conditions: APEC O2-211, M63 media; MIC/MBC
[2] = tested on: biofilm embedded APEC O78; test: MBEC High-throughput assay; type: cell-based, avian pathogenic Escherichia coli (APEC)
APEC O78 [3] = test: Confocal microscopy bacterial cytological profiling; type: cell-based, avian pathogenic Escherichia coli (APEC); conditions: 2X MBC
Description: Confocal and scanning electron microscopy. Confocal microscopy was used for bacterial cytological profiling (BCP) to identify the cellular pathways targeted by SMs as described previously. […] After incubation, treated cultures were centrifuged, washed, and resuspended in 100 μL PBS. […] Cultures were then centrifuged, washed, and resuspended in PBS to 1⁄10th volume of the original cultures.

APEC O78 [4] = test: Loss of 260/280 nm absorbing materials assay; type: cell-based, avian pathogenic Escherichia coli (APEC); conditions: 2X MBC, 1 h, *P<0.05 vs DMSO
[5] = tested on: intracellular APEC O78 in Caco-2 cells; test: Intracellular survival assay (cidal SMs); conditions: O78, Caco-2, 6 h treatment; superscript = multiple of MIC
[6] = tested on: intracellular APEC O78 in HD11 cells; test: Intracellular survival assay (cidal SMs); conditions: O78, HD11, 6 h treatment; superscript = multiple of MIC
[7] = tested on: intracellular APEC O78 in THP-1 cells; test: Intracellular survival assay (cidal SMs); conditions: O78, THP-1, 6 h treatment; superscript = multiple of MIC
[8] = tested on: intracellular APEC O2 in Caco-2 cells; test: Intracellular survival assay (cidal SMs); conditions: O2, Caco-2, 6 h treatment; superscript = multiple of MIC
[9] = tested on: intracellular APEC O2 in HD11 cells; test: Intracellular survival assay (cidal SMs); conditions: O2, HD11, 6 h treatment; superscript = multiple of MIC
[10] = tested on: intracellular APEC O2 in THP-1 cells; test: Intracellular survival assay (cidal SMs); conditions: O2, THP-1, 6 h treatment; superscript = multiple of MIC
[11] = tested on: intracellular APEC O1 in Caco-2 cells; test: Intracellular survival assay (cidal SMs); conditions: O1, Caco-2, 6 h treatment; superscript = multiple of MIC
[12] = tested on: intracellular APEC O1 in HD11 cells; test: Intracellular survival assay (cidal SMs); conditions: O1, HD11, 6 h treatment; superscript = multiple of MIC
[13] = tested on: intracellular APEC O1 in THP-1 cells; test: Intracellular survival assay (cidal SMs); conditions: O1, THP-1, 6 h treatment; superscript = multiple of MIC
Rif^r APEC O78 = test: In vivo efficacy of growth inhibitors in APEC infected broiler chickens
[14] = tested on: intracellular APEC O78, O2, and O1 in infected Caco-2, HD11, and THP1 cells; test: Intracellular survival assay (cidal SMs), summary over serotypes and cells; conditions: overall ranking

## CC(=O)OC(C(Br)C(=O)c1ccc([N+](=O)[O-])cc1)C(Cl)(Cl)Cl (centres unmarked) [SM10]
APEC O78 [1]
  MBC: 50 µM (≈ 21.7 µg/mL)
  MIC: 25 µM (≈ 10.8 µg/mL)
APEC O1
  MBC: 25 µM (≈ 10.8 µg/mL)
  MIC: 25 µM (≈ 10.8 µg/mL)
APEC O2
  MBC: 50 µM (≈ 21.7 µg/mL)
  MIC: 25 µM (≈ 10.8 µg/mL)
APEC O8
  MBC: 50 µM (≈ 21.7 µg/mL)
  MIC: 50 µM (≈ 21.7 µg/mL)
APEC O15
  MBC: 100 µM (≈ 43.3 µg/mL)
  MIC: 50 µM (≈ 21.7 µg/mL)
APEC O18
  MBC: 100 µM (≈ 43.3 µg/mL)
  MIC: 25 µM (≈ 10.8 µg/mL)
APEC O35
  MBC: 50 µM (≈ 21.7 µg/mL)
  MIC: 25 µM (≈ 10.8 µg/mL)
APEC O115
  MBC: 50 µM (≈ 21.7 µg/mL)
  MIC: 25 µM (≈ 10.8 µg/mL)
APEC O109
  MBC: 50 µM (≈ 21.7 µg/mL)
  MIC: 25 µM (≈ 10.8 µg/mL)
APEC O78-53
  MBC: 50 µM (≈ 21.7 µg/mL)
  MIC: 25 µM (≈ 10.8 µg/mL)
APEC O1-63
  MBC: 100 µM (≈ 43.3 µg/mL)
  MIC: 50 µM (≈ 21.7 µg/mL)
APEC O2-211
  MBC: 50 µM (≈ 21.7 µg/mL)
  MIC: 25 µM (≈ 10.8 µg/mL)
[2]; at 1X MIC
  reduction of biofilms embedded APEC: significantly (P<0.05) reduced
[2]; biofilm embedded APEC O78, superscript = multiple of MIC (footnote)
  MBEC: >200 µM
APEC O78 [3]
  cytological profile (confocal, FM4-64 / SYTO-9): PG synthesis inhibitors
APEC O78 [4]; 260 nm absorbing material in supernatant
  Absorbance 260: 3.98*
APEC O78 [4]; 280 nm absorbing material in supernatant
  Absorbance 280: 2.73*
[5]
  SMs intracellular APEC clearance concentration: 100^c µM
[6]
  SMs intracellular APEC clearance concentration: 50^b µM
[7]
  SMs intracellular APEC clearance concentration: 100^c µM
[8]
  SMs intracellular APEC clearance concentration: 100^c µM
[9]
  SMs intracellular APEC clearance concentration: 100^c µM
[10]
  SMs intracellular APEC clearance concentration: 50^b µM
[11]
  SMs intracellular APEC clearance concentration: 100^c µM
[12]
  SMs intracellular APEC clearance concentration: >100 µM
[13]
  SMs intracellular APEC clearance concentration: >100 µM
Rif^r APEC O78; average of liver, heart, lung and kidney, vs untreated control
  reduction of average APEC load in internal organs: 1.3 logs
Rif^r APEC O78; oral gavage twice a day, 5 days, untreated mortality (58.34%) normalized to 100%
  reduction of APEC induced mortality: 71.42%
Rif^r APEC O78; untreated control = 100%
  reduction of APEC lesions severity (%), Air-sacs (airsacculitis): -52.9%
  reduction of APEC lesions severity (%), Heart (pericarditis): -28%
  reduction of APEC lesions severity (%), Liver (perihepatitis): 20%
  reduction of APEC lesions severity (%), Lung (lung congestion): 0%
Rif^r APEC O78; vs untreated control
  reduction of APEC load, Heart: 1.0 log CFU/g of tissues
  reduction of APEC load, Kidney: 2.4 log CFU/g of tissues
  reduction of APEC load, Liver: 0.8 log CFU/g of tissues
  reduction of APEC load, Lung: 1.4 log CFU/g of tissues
Rif^r APEC O78; weight of live chickens before necropsy minus weight before treatment
  Body weight gain (BWG): 220.75±38.93
[14]
  effectiveness in clearing intracellular APEC serotypes in all tested cells: most effective
